Publication PMC10761396, “Evaluation of new alternative methods for the identification of estrogenic, androgenic and steroidogenic effects: a comparative in vitro/in silico study” (Archives of Toxicology, 2023)
≈ marks a conversion by molar mass, not a printed value. Entries after “also recorded” stand apart in the source; their conditions may differ. Read-outs that look alike come from different tables or passages of the source.

Legend:
ER [1] = system: ER; design: method as in Browne, et al (2015); conditions: ref Browne, et al (2015), cited from earlier work; for ToxCast Pathway Model (AUC): as agonist where given, value above 0.1 = significant interaction
aromatase [2] = experiment: ToxCast aromatase assays (TOX21_Aromatase_Inhibition) and final ToxCast call; type: cell-based; conditions: for ToxCast result: aromatase overall ToxCast call; for Final "true" call (ToxCast) Aromatase inhibition: from ToxCast assays
Excerpt: (§1) The performance of different in silico models for ED effects tends to be evaluated on single model for a single effect, such as ER or AR binding, agonism or antagonism (normally by the developer), or a limited number of models using multiple chemicals (Weyrich et al. [2022]). Multi-organisation collaborations have also evaluated multiple models for a specific effect e.g. ER (Mansouri et al. [2016]) and AR (Mansouri et al. [2020]) effects. Therefore, we have conducted a side-by-side comparison of multiple different in silico models covering three pathways in ED, namely ER, AR and aromatase inhibition and compared these with ToxCast-derived final calls, as well as with results from in vitro assays. The efficiency of the in silico models was evaluated as a metric for the ability of the in silico model to generate concrete predictions. […] In vivo data were available for some but not all chemicals; therefore, an evaluation of the performance of the methods was made by comparing the derived overall calls from in silico models with those from the ToxCast database. The final call for each chemical evaluated in the ToxCast assays was made by considering the active-flagged assays and the corresponding cytotoxicity levels, the ToxCast Pathway Model (Browne et al. [2015]) and the CERAPP Potency Level (Mansouri et al. [2016]) for ER effects and the ToxCast Pathway Model (Kleinstreuer et al. [2017]) for AR effects (see Online Resource 1 Supplementary Tables 2, 4 and 6 for the outcome of the ER, AR and aromatase ToxCast assays, additional literature and final calls for each chemical and target).
Aromatase represents only one enzyme involved in steroidogenesis (the conversion of androgens to oestrogens); therefore, the aromatase assay detects effects on 17β-oestradiol production only. […] It is a cell-based assay in which MCF-7 cells are incubated with the test chemical for 24 h before measuring aromatase activities indirectly via a luciferase-based reporter endpoint which is dependent on the binding of the oestradiol–ER complex to the oestrogen response element. A decrease in luciferase activity can occur as a result of direct inhibition of aromatase (preventing the production of oestradiol) or by preventing oestradiol from binding to the ER and thus the binding to the oestrogen RE which initiates the production of luciferase (Lui et al. [2008]).

AR [3] = conditions: cited from earlier work; for ToxCast Pathway Model (AUC): AR pathway model, ref Kleinstreuer et al (2017) 10.1021/acs.chemrestox.6b00347
ER [4] = system: ER; design: method as in US EPA ToxCast; conditions: ref US EPA ToxCast, cited from earlier work
ER [5] = system: ER; design: method as in Mansouri et al. 2016; conditions: ref Mansouri et al. 2016; cited from earlier work
ER [6] = experiment: ToxCast ER assays and final ToxCast call; conditions: for Final "true" call (ToxCast) ER: from active ToxCast assays, cytotoxicity, ToxCast Pathway Model and CERAPP Potency Level; for ToxCast result (ER): overall call from ToxCast data (Supplementary Table 2)
Excerpt: (§2) A rich source of data can be found in the EPA's ToxCast database (US EPA). This contains ED data for ~ 1800 chemicals in more than 700 high-throughput assay endpoints that cover a range of high-level cell responses. The US EPA is running an Endocrine Disruption Screening Program (EDSP), with the aim of prioritising chemicals using high-throughput screening methods and computational toxicology approaches to evaluate thousands of chemicals for ED activities. The OECD framework for ED assessment (OECD [2018]) requires animal testing at higher levels, where relevant in vitro alternatives are missing e.g. for developmental, reproductive, neurological and immune effects. However, such follow-up testing is not possible for the cosmetics industry especially in the EU due to the complete animal testing ban which came into force in March 2013 (EU [2009]). Even for other industries, animal models are not suitable for assessing ED effects due to issues relating to ethics, capacity, speed and relevance (Patisaul et al. [2018]). Therefore, chemicals which cannot be evaluated using in vivo method must be assessed using alternative methods e.g. in silico and in vitro methods listed in Levels 1 and 2 of the framework described in the OECD 150 test guideline (OECD [2018]).
as §1

AR [7] = system: AR; design: method as in ToxCast; conditions: ref ToxCast, cited from earlier work; for ToxCast conclusion from assays result: AR sheet; for ToxCast 1: (Active assays), number of positive assays / assays run: ToxCast AR assays
Solubility = type: physicochemical
H295R cells = experiment: H295R steroidogenesis assay (oestrogen and androgen production); type: cell-based, human; conditions: for minimal effective concentration: Homo sapiens, NCI-H295R, 48 h
Procedure: The in vitro H295R Steroidogenesis Assay is based on the human adenocarcinoma cell line, NCI-H295R, in which the human steroidogenesis pathway is fully functional (OECD 2022). The effect of the test chemical on the production of 17β-estradiol and testosterone is measured using ERα CALUX and AR CALUX technology.
The test chemical was tested in two independent assays, each in triplicate.

AR [8] = experiment: ToxCast AR assays and final ToxCast call; conditions: for Final "true" call (ToxCast): AR effects, from active assays, cytotoxicity and pathway model
Excerpt: as §2, §1

aromatase [9] = system: aromatase; design: method as in US EPA ToxCast; conditions: ref US EPA ToxCast, cited from earlier work
aromatase [10] = system: aromatase; design: method as in Lu et al. [2012]; conditions: recombinant and placental microsomal preparations; ref Lu et al. [2012]; cited from earlier work
MCF-7 cells = conditions: cited from earlier work
human (non-selective) ER = experiment: ER radioligand ([3H]estradiol) receptor-binding assay; conditions: single-dose screening, 10 µM
Procedure: The chemicals were tested for their ability to bind to different targets. […] Chemicals were incubated at 10 µM with cells overexpressing ER or AR for 24 h at 4°C, after which, the binding of the radiolabeled ligand ([^3H]estradiol for ER and [^3H]methyltrienolone for AR) was measured by liquid scintillation counting. An increase or decrease higher than 50% were considered to represent significant effects. Four chemicals were tested in additional incubations at several concentrations up to the maximum soluble concentration for IC50 or EC50 determination for the associated target. Receptor binding was calculated as a % inhibition of the binding of a radioactively labeled ligand specific for each target.
Each test chemical was tested in a single assay in duplicate.

[11] = target: T1, human recombinant CYP19A1 (Homo sapiens, UniProt P11511); experiment: Recombinant enzyme aromatase activity inhibition assay; type: biochemical; conditions: follow-up dose–response assay
T1 sequence (P11511 1-503): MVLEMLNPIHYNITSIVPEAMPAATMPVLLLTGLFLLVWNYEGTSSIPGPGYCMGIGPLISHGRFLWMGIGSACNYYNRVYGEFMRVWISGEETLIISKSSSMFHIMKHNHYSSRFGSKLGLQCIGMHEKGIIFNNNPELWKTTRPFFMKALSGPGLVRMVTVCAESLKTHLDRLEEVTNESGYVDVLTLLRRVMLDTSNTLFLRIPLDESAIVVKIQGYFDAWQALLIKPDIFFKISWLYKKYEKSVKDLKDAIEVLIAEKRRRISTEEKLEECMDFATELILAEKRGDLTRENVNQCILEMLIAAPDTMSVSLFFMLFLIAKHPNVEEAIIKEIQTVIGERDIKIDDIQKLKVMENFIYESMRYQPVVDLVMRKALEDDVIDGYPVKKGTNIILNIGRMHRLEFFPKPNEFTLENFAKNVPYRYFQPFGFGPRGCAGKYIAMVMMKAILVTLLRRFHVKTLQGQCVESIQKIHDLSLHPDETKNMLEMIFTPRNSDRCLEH
Procedure: An aromatase inhibition assay was also included in the in vitro assay panel. This enzyme – otherwise known as CYP19A1 - is responsible for converting androgens into estrogens (Blakemore and Naftolin 2016; Bulun 2014); therefore, chemicals that inhibit aromatase activity can lead to reduced estrogen production, which can affect reproductive and developmental processes (Kragie 2002; Tiboni and Ponzano 2016).
The metabolite, estradiol, was measured by time-resolved fluorescence according to the method described previously (Ji et al. 2014). Enzyme inhibition was calculated as a % inhibition of control enzyme activity.

AR [12] = system: AR; design: method as in Park et al. [2021]; conditions: ref Park et al. [2021]; cited from earlier work
[13] = UPITT_HCI_U2OS_AR_TIF2_Nucleoli_Antagonist
[14] = read-out: Steroidogenesis Androgenicity LEC
[15] = read-out: Steroidogenesis Estrogenicity LEC

Molecule | ToxCast Pathway Model (AUC) (ER [1]) | ToxCast Pathway Model interaction (ER [1]) | ToxCast result (aromatase [2]) | Final "true" call (ToxCast) Aromatase inhibition (aromatase [2]) | ToxCast Pathway Model (AUC) (AR [3]) | ToxCast 1: (Active assays), positive/total ER assays (ER [4]) | ToxCast conclusion from assays result (ER [4]) | CERAPP Potency Level (ER [5]) | Final "true" call (ToxCast) ER (ER [6]) | ToxCast result (ER) (ER [6]) | ToxCast conclusion from assays result (AR [7]) | ToxCast 1: (Active assays), number of positive assays / assays run (AR [7]) | efficacy (assays Comments) (AR [7]; [13]) | minimal effective concentration (H295R cells; [14]) | minimal effective concentration (H295R cells; [15]) | Final "true" call (ToxCast) (AR [8]) | ToxCast (Aromatase assays), positive/total (aromatase [9]) | other results
CCCCOC(=O)c1ccccc1C(=O)OCc1ccccc1 [BBP, benzyl butyl phthalate] | 0.18 | significant interaction | Negative | Negative | AUC = 0, then there is no significant interaction. | 14/21 positive | Endocrine Disruption Potential.Significant Estrogen Receptor activity seen | Very weak antagonist | Positive for agonism | ER agonist only | Endocrine Disruption Potential.Significant Estrogen Receptor activity seen | 2/14 positive | Boarderline: less than 50% efficacy (48.9%) | > 10 µM | > 10 µM | Inconclusive | 0/2 positive | efficacy (assays Comments) (AR [7]; TOX21_AR_LUC_MDAKB2_Antagonist_0.5nM_R1881): Boarderline: less than 50% efficacy (38.4%); solubility (Solubility): ~10 µM (≈ 3.12 µg/mL)
CC/C(=C(\c1ccccc1)c1ccc(OCCN(C)C)cc1)c1ccccc1 [Tamoxifen, reference compound] | 0.45 | significant interaction | Positive | Positive | AUC = 0.042, then there is no significant interaction. | 19/21 positive | Endocrine Disruption Potential.Significant Estrogen Receptor activity seen | Moderate antagonist | Positive for agonism and antagonism | ER agonist and antagonist | Endocrine Disruption Potential.Significant Estrogen Receptor activity seen | 9/17 Positive |  | > 3.16 µM | > 1 µM | Inconclusive |  | aromatase inhibitory action (aromatase [10]): no appreciable inhibition; ToxCast 1: (assays Comments) (AR [7]; comment on all active AR assays): There is binding, but only one concentration above the baseline, (noisy data); ToxCast (Aromatase assays), assay listed as active (aromatase [9]; each listed assay name = active assay): TOX21_Aromatase_Inhibition; also recorded: TOX21_Aromatase_Inhibition_viability
C=CCc1ccc(O)c(OC)c1 [eugenol] |  |  |  |  |  |  |  |  |  |  |  |  |  |  |  |  |  | effect on MCF-7 cells (MCF-7 cells): cytotoxicity
isoeugenol | 0.0124 | no significant interaction | Negative | Negative | AUC = = 0, then there is no significant interaction. | 9/19 positive | Endocrine Disruption Potential.Significant Estrogen Receptor activity seen | Weak agonist/ antagonist | Inconclusive |  | Endocrine Disruption Potential.Significant Estrogen Receptor activity seen | 1/14 positive | Boarderline: less than 50% efficacy (48.8%) |  |  | Negative | 0/2 positive | inhibition of control specific binding to the ER (human (non-selective) ER): less than -25%; ToxCast Pathway model, interaction with the AR (AR [3]; ref Kleinstreuer et al. [2017]): insignificant; ToxCast 1: (Comments), efficacy (ER [4]; borderline: less than 50% efficacy): Boarderline: less than 50% efficacy; aromatase inhibition outcome [11]: positive; ToxCast 1: (assays Comments) (AR [7]; [13]): Only highest concentration above the baseline; LEC, oestrogen production (H295R cells; increase): 10 µM; ToxCast result (AR [8]; AR overall call from Supplementary Table 4): Negative; Final "true" call (ToxCast) AR (AR [8]; from ToxCast assays and ToxCast Pathway Model): Negative; AR antagonism and impact of metabolism (AR [12]): exhibits AR antagonism which is decreased by metabolism
